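In this assay, cells in 96-well plates receive the compound at five concentrations for 48 hours. Endpoints are linearly interpolated between the surrounding concentrations. GI50 = concentration required for 50% inhibition of growth.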 Calls of active or inactive are those of the source. Rule as the data show it: active = GI50 up to about 1.1 µM and inactive = higher.

Some test systems named below: RPMI-8226; CAKI-1; NCI/ADR-RES; OVCAR-4; T47D; 786-0; LOX IMVI; MOLT-4; NCI-H226; MDA-MB-435; UACC-62; MDA-MB-231; COLO 205; U-251; MDA-N; UO-31; SK-MEL-5; M14; SN12C; HL-60.
Test in all cases: NCI anticancer screen, dose series, 48 h

Regarding `CC(C)(C)c1cc(C2NC(=O)NC2=O)cc(C(C)(C)C)c1O` (configuration not stated), the GI50 in the assay on RPMI-8226 was 66.5 µM (inactive); in the assay with CAKI-1, > 100 µM (inactive); in the assay on NCI/ADR-RES, > 100 µM (inactive); in the assay on OVCAR-4, > 100 µM (inactive); in the assay with T47D it was 46 µM (inactive); in the assay on 786-0 it was > 10 µM (inactive). The GI50 was > 100 µM (inactive) with LOX IMVI; 39.5 µM (inactive) in the assay on MOLT-4; > 100 µM (inactive) in the assay with NCI-H226; 31 µM (inactive) in the assay with MDA-MB-435; 45.1 µM (inactive) in the assay on UACC-62; 35.6 µM (inactive) with MDA-MB-231. Moreover, the GI50 was > 100 µM (inactive) in the assay on COLO 205; 39.5 µM (inactive) with U-251; 47 µM (inactive) in the assay on MDA-N; > 100 µM (inactive) in the assay with UO-31; > 10 µM (inactive) in the assay on SK-MEL-5; > 100 µM (inactive) in the assay with M14.

For the compound `COc1cccc2c1C(=N)c1c(O)c3c(c(O)c1C2=O)C[C@@](O)(C(C)=O)C[C@@H]3OC1CC(N)C(O)C(C)O1` (some centres not stated), the GI50 was 0.000159 µM (active) in the assay with RPMI-8226; 0.141 µM (active) in the assay on CAKI-1; 0.000159 µM (active) in the assay with NCI/ADR-RES; 1.83 µM (inactive) in the assay on OVCAR-4; 0.0047 µM (active) in the assay on T47D; 0.171 µM (active) with 786-0. Besides, the GI50 is 0.00638 µM (active) in the assay on LOX IMVI; 0.000132 µM (active) with MOLT-4; 0.137 µM (active) in the assay with NCI-H226; < 0.01 µM (active) with MDA-MB-435; 0.00771 µM (active) in the assay on SN12C; 0.0094 µM (active) with UACC-62. The GI50 is < 0.01 µM (active) with MDA-MB-231; 0.394 µM (active) in the assay on COLO 205; 0.000228 µM (active) in the assay on U-251; < 0.01 µM (active) in the assay on MDA-N; 0.00369 µM (active) with UO-31; 0.196 µM (active) with SK-MEL-5. Moreover, the GI50 with M14 was 0.00957 µM (active).

On to `CSC1=C(c2ccc(Cl)cc2)SC(N2CCCCC2)N1c1ccc([N+](=O)[O-])cc1` (configuration not stated), for which the GI50 in the assay on RPMI-8226 is 16.6 µM (inactive); in the assay on CAKI-1, 44.8 µM (inactive); in the assay on NCI/ADR-RES it was 26.7 µM (inactive); with OVCAR-4, 23.3 µM (inactive); in the assay with T47D it was 23.9 µM (inactive); in the assay on 786-0, 31.6 µM (inactive). Besides, the GI50 in the assay on LOX IMVI is 30.6 µM (inactive); with HL-60 it was 25.5 µM (inactive); with MOLT-4, 26 µM (inactive); in the assay with NCI-H226 it was 76.9 µM (inactive); in the assay with MDA-MB-435, 31.6 µM (inactive); in the assay on UACC-62, 17.5 µM (inactive). In addition, the GI50 in the assay on MDA-MB-231 is 27.1 µM (inactive); with COLO 205 it was 27.1 µM (inactive); in the assay on U-251, 21.4 µM (inactive); with MDA-N, 39.4 µM (inactive); in the assay with UO-31 it was 32.7 µM (inactive); with SK-MEL-5 it was 14.6 µM (inactive). For the same compound, in the assay with M14, the GI50 is 18.5 µM (inactive).

Regarding `O=C1C=C(NCCOCCO)C(=O)c2c(O)ccc(O)c21`, the GI50 in the assay on RPMI-8226 was 22.7 µM (inactive); in the assay on CAKI-1, 43.3 µM (inactive); in the assay on NCI/ADR-RES it was 23.1 µM (inactive); in the assay with OVCAR-4 it was 18 µM (inactive); with T47D, 23.8 µM (inactive); in the assay on 786-0 it was 37.4 µM (inactive). Further, the GI50 is 15.6 µM (inactive) with LOX IMVI; 15.3 µM (inactive) in the assay on HL-60; 26.1 µM (inactive) in the assay with MOLT-4; > 100 µM (inactive) in the assay with NCI-H226; 18.2 µM (inactive) in the assay on MDA-MB-435; 14.5 µM (inactive) in the assay on UACC-62. Also, the GI50 is 33.2 µM (inactive) in the assay on MDA-MB-231; 17.1 µM (inactive) with COLO 205; 30.5 µM (inactive) in the assay on U-251; 17.3 µM (inactive) in the assay on MDA-N; 59.8 µM (inactive) in the assay on UO-31; 13.2 µM (inactive) in the assay with SK-MEL-5. The GI50 in the assay with M14 is 22.5 µM (inactive).

Take `O=C(/C=C/c1ccc(O)c(O)c1)NC(CO)C(=O)O` (configuration not stated): the GI50 was > 100 µM (inactive) with RPMI-8226; > 100 µM (inactive) with CAKI-1; 2.59 µM (inactive) in the assay on NCI/ADR-RES; > 100 µM (inactive) in the assay with OVCAR-4; > 100 µM (inactive) in the assay on T47D; > 100 µM (inactive) with 786-0. Moreover, the GI50 with LOX IMVI, with MOLT-4, in the assay on NCI-H226, in the assay on MDA-MB-435, with SN12C and with UACC-62 was > 100 µM (inactive) in each case. In addition, the GI50 with MDA-MB-231, with COLO 205, with U-251, with MDA-N, with UO-31 and with SK-MEL-5 was > 100 µM (inactive) throughout. The GI50 in the assay with M14 was > 100 µM (inactive).

`N#Cc1c(N)nc(-c2ccc(Cl)cc2)c2c1-c1ccccc1S(=O)(=O)CC2`: the GI50 was > 100 µM (inactive) in the assay on RPMI-8226; > 100 µM (inactive) in the assay on CAKI-1; 52.5 µM (inactive) in the assay on NCI/ADR-RES; 23.2 µM (inactive) in the assay with OVCAR-4; > 100 µM (inactive) in the assay with T47D; 27.2 µM (inactive) in the assay with 786-0. Further, the GI50 with LOX IMVI was > 100 µM (inactive); in the assay on NCI-H226, > 100 µM (inactive); with MDA-MB-435, > 100 µM (inactive); in the assay with SN12C, 53.7 µM (inactive); with UACC-62 it was > 100 µM (inactive); in the assay with MDA-MB-231, > 100 µM (inactive). Besides, the GI50 with COLO 205 is > 100 µM (inactive); in the assay on U-251, 37.3 µM (inactive); with MDA-N it was > 100 µM (inactive); in the assay with UO-31, > 100 µM (inactive); in the assay on SK-MEL-5, > 100 µM (inactive); in the assay with M14, > 100 µM (inactive).

For the compound `C=C1C(=O)O[C@H]2C(=O)[C@H](C)CCC/C(C)=C/CC[C@@]3(C)O[C@@H]3C[C@@H]12`, the GI50 in the assay with RPMI-8226 was 2.25 µM (inactive); in the assay with CAKI-1 it was 1.67 µM (inactive); with NCI/ADR-RES, 14 µM (inactive); in the assay with T47D it was 2.01 µM (inactive); with 786-0, 1.62 µM (inactive); in the assay with LOX IMVI it was 1.49 µM (inactive). Further, the GI50 with HL-60 was 2.72 µM (inactive); in the assay with MOLT-4, 1.61 µM (inactive); in the assay on NCI-H226, 17.7 µM (inactive); in the assay on MDA-MB-435, 1.98 µM (inactive); in the assay on SN12C, 5.53 µM (inactive); in the assay with UACC-62, 5.06 µM (inactive). Moreover, the GI50 in the assay on MDA-MB-231 is 10.7 µM (inactive); in the assay with COLO 205, 1.58 µM (inactive); in the assay with U-251, 2.67 µM (inactive); in the assay on MDA-N, 2.74 µM (inactive); in the assay with UO-31, 1.62 µM (inactive); in the assay with SK-MEL-5, 7.59 µM (inactive). The GI50 in the assay with M14 is 1.67 µM (inactive).

For the compound `CCOC(=O)Oc1ccc2c(c1)c(=O)c1c(NCCCN(CC)CC)ccc3nnn2c31`, the GI50 is 2.17 µM (inactive) in the assay with RPMI-8226; 0.53 µM (active) with CAKI-1; 7.76 µM (inactive) in the assay on NCI/ADR-RES; 0.33 µM (active) with OVCAR-4; 16.8 µM (inactive) in the assay with T47D; 1.59 µM (inactive) in the assay with 786-0. Also, the GI50 is 2.52 µM (inactive) in the assay on LOX IMVI; 0.745 µM (active) in the assay on MOLT-4; 7.18 µM (inactive) in the assay on NCI-H226; 5.45 µM (inactive) in the assay on MDA-MB-435; 3.67 µM (inactive) in the assay with SN12C; 15.3 µM (inactive) in the assay with UACC-62. Besides, the GI50 in the assay with MDA-MB-231 is 1.12 µM (inactive); in the assay on COLO 205 it was 11.7 µM (inactive); in the assay with U-251, 10.4 µM (inactive); in the assay on MDA-N it was 1.19 µM (inactive); with UO-31 it was 0.598 µM (active); in the assay with SK-MEL-5, 10.2 µM (inactive). The GI50 in the assay on M14 is 12.3 µM (inactive).

As for `COc1cccc([C@@H]2C/C(=N\NC(=O)C(=O)N[C@@H](C)c3ccccc3)c3ccccc3N2)c1`, the GI50 is 32.4 µM (inactive) in the assay on RPMI-8226; 25.8 µM (inactive) in the assay on CAKI-1; 65.2 µM (inactive) in the assay with NCI/ADR-RES; 34.8 µM (inactive) with OVCAR-4; 51.6 µM (inactive) in the assay on T47D; 44.6 µM (inactive) with 786-0. Besides, the GI50 in the assay with LOX IMVI is > 100 µM (inactive); with MOLT-4 it was 4.1 µM (inactive); with NCI-H226 it was > 100 µM (inactive); in the assay with MDA-MB-435 it was 4.82 µM (inactive); with SN12C, > 100 µM (inactive); with UACC-62, 9.31 µM (inactive). Further, the GI50 in the assay on MDA-MB-231 is 35.6 µM (inactive); in the assay on COLO 205, > 100 µM (inactive); in the assay with U-251, > 100 µM (inactive); in the assay on MDA-N, 4.66 µM (inactive); in the assay with UO-31, > 100 µM (inactive); in the assay with SK-MEL-5, 14.5 µM (inactive). For the same compound, in the assay on M14, the GI50 was > 100 µM (inactive).

Regarding `CCCCCCCCCCCCO[PH](=O)OCCCCCCCCCCCC`, the GI50 with RPMI-8226, with NCI/ADR-RES, in the assay on OVCAR-4, in the assay on T47D, in the assay with 786-0 and in the assay on HL-60 was > 100 µM (inactive) throughout. Also, the GI50 in the assay on MOLT-4, in the assay on NCI-H226, with MDA-MB-435, in the assay on SN12C, in the assay on UACC-62 and in the assay with MDA-MB-231 was > 100 µM (inactive) each time. In addition, the GI50 in the assay with COLO 205, in the assay with U-251, in the assay with MDA-N, in the assay on UO-31, with SK-MEL-5 and in the assay with M14 was > 100 µM (inactive) throughout.

(Values after ChEMBL document CHEMBL1201862, “PubChem BioAssay data set” (2004).)
